According to patent US20250205185A1 (COSMED PHARMACEUTICAL CO., LTD., priority 2022, published 2025):

Assay: Microscope observation of taurine crystals (Test Example 1)
Format: physicochemical
Conditions: observed with a microscope; for Maximum particle size (length) μm: length = major axis; for Maximum particle size (thickness) μm: thickness = minor axis

SMILES	Crystalline form	Maximum particle size (length) μm [μm]	Maximum particle size (thickness) μm [μm]
NCCS(=O)(=O)O [Example 5, taurine]	Needle-	800	55
NCCS(=O)(=O)O [Example 3, taurine]	Columnar	150	100
NCCS(=O)(=O)O [Example 2, taurine]	Columnar	150	80
NCCS(=O)(=O)O [Example 9, taurine]	Needle-	150	40
NCCS(=O)(=O)O [Comparative Example 2, taurine]	Massive	2000	300
NCCS(=O)(=O)O [Example 8, taurine]	Needle-	220	30
NCCS(=O)(=O)O [Example 4, taurine]	Columnar	100	70
NCCS(=O)(=O)O [Example 6, taurine]	Needle-	250	25
NCCS(=O)(=O)O [Comparative Example 3, taurine, reference compound]	Massive	6740	1680
NCCS(=O)(=O)O [Example 1, taurine]	Columnar	280	145
NCCS(=O)(=O)O [Example 10, taurine]	Needle-	720	25
NCCS(=O)(=O)O [Example 11, taurine]	Needle-	370	20
NCCS(=O)(=O)O [Comparative Example 1, taurine]	Massive	700	160
NCCS(=O)(=O)O [Example 7, taurine]	Needle-	250	20
